Data from patent publication US20260001928A1 (CORTERIA PHARMACEUTICALS, priority 2022, published 2026).
*1 amine or outer side, *2 acyl side, *3 side chain or, on linkers, in order; H or OH if unused. Where a SMILES comes first, the peptide text is derived from it. Side-chain parts run from the residue outwards. [ ]: non-standard residue; d: D form. The star is where a group is joined. C20 diacid = O=C(O)CCCCCCCCCCCCCCCCCCC(=O)*; C18 diacid = O=C(O)CCCCCCCCCCCCCCCCC(=O)*; C16 diacid = O=C(O)CCCCCCCCCCCCCCC(=O)*; γGlu = O=C(O)[C@H](CCC(=O)[*:2])N[*:1]; C14 diacid = O=C(O)CCCCCCCCCCCCC(=O)*; Api = NC1(C(=O)O)CCNCC1; Hexanoyl = CCCCCC(=O)*; Pentanoyl = CCCCC(=O)*; AEEA = NCCOCCOCC(=O)O; Aib = CC(C)(N)C(=O)O

Key:
human CRF2a receptor = target: T1, human CRF2a receptor (Homo sapiens, UniProt Q13324); assay: Activity at human CRF2a receptor, cAMP functional assay in TeloHEAC cells; assay type: cell-based; details: TeloHEAC cells stably expressing human CRF2a receptor, relative to urocortin 2 (100 nM = 100%)
T1 construct: expressed in transfected cells; host or cells: TeloHEAC cells
T1 sequence (Q13324 1-411): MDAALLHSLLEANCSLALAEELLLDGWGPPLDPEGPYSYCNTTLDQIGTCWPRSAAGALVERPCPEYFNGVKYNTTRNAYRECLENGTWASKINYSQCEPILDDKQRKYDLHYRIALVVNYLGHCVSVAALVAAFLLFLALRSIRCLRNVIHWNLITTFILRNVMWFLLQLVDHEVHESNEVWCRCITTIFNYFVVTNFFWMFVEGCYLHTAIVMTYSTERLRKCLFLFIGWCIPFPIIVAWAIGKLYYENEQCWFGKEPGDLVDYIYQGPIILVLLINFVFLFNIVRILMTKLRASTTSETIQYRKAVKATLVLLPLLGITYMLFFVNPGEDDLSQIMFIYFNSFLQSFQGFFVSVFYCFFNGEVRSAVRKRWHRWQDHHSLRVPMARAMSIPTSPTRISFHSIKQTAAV
How it was run: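 TeloHEAC cells stably expressing human CRF2a (10000 cells/well) were treated with 16-point 1:2 compound dilutions in HBSS/20 mM HEPES with IBMX for 30 min at 37° C. cAMP was read by HTRF (665/620 nm ratio). EC50 was the concentration giving 50% activation, with 100 nM urocortin 2 set as 100%.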

CFR1R receptor = target: T2, CFR1R receptor (Homo sapiens, UniProt P34998); assay: Activity at anti-target CFR1R receptor, cAMP assay in CRF1R-overexpression CHO-K1 cells; assay type: cell-based; details: 100% = Sauvagine at 100 nM; for EC50: cAMP
T2 construct: host or cells: CHO-K1 (clone 2)
T2 sequence (P34998 24-415): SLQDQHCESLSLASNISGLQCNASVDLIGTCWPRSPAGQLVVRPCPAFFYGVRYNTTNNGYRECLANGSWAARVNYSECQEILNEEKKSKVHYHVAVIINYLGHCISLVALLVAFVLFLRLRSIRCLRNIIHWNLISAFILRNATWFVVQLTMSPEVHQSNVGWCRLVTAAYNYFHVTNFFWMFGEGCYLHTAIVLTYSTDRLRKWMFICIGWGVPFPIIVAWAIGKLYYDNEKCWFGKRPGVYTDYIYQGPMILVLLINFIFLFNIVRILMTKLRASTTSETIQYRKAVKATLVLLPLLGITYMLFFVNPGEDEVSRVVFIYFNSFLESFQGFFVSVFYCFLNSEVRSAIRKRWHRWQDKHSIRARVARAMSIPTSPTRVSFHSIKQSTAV
How it was run: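 Clone 2 cells were cultured in F12 (Hams)/10% FBS/400 μg/ml G418 at 37° C./5% CO2, frozen in medium with 10% DMSO, and thawed vials used. The protocol followed the TeloHAEC procedure, with 4000 cells/well final and Sauvagine at 100 nM defining 100% activation.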

Row | EC50 (human CRF2a receptor) [nM] | Emax (% I) (CFR1R receptor) | EC50 (CFR1R receptor) [nM] | SMILES
1 | 1.37 | 5 | > 250 | CCCCC(=O)N[C@H](C(=O)N[C@@H](CC(C)C)C(=O)N[C@@H](CO)C(=O)N[C@@H](CC(C)C)C(=O)N[C@@H](CC(=O)O)C(=O)N[C@@H](C(=O)N1CCC[C@H]1C(=O)N[C@H](C(=O)N[C@@H](CCCCN)C(=O)N[C@@H](CC(C)C)C(=O)N[C@@H](CCCCNC(=O)COCCOCCNC(=O)COCCOCCNC(=O)CC[C@H](NC(=O)CCCCCCCCCCCCCCCCC(=O)O)C(=O)O)C(=O)N[C@@H](CCCCN)C(=O)N[C@H](C(=O)N[C@@H](CC(C)C)C(=O)N[C@@H](CC(C)C)C(=O)N[C@@H](CCC(=O)O)C(=O)N[C@@H](CCC(N)=O)C(=O)N[C@@H](CCC(=O)O)C(=O)N[C@@H](CCCCN)C(=O)N[C@@H](CCC(N)=O)C(=O)N[C@@H](CCCCN)C(=O)N[C@@H](CCCCN)C(=O)N[C@@H](CCC(N)=O)C(=O)N[C@@H](CCCNC(=N)N)C(=O)N[C@@H](CCC(=O)O)C(=O)N[C@@H](CCC(N)=O)C(=O)N[C@@H](C)C(=O)N[C@@H](CCC(=O)O)C(=O)N[C@H](C(=O)N[C@@H](CC(N)=O)C(=O)NC(C)(C)C(=O)N[C@@H](CCC(N)=O)C(=O)N[C@H](C(=O)N[C@@H](CC(C)C)C(=O)N[C@@H](C)C(=O)N[C@@H](CCC(N)=O)C(=O)N[C@H](C(N)=O)C(C)C)[C@@H](C)CC)[C@@H](C)O)[C@@H](C)CC)[C@@H](C)CC)C(C)C)C(C)C [compound 201] (Pentanoyl-VLSLD[dV]PIKLK([AEEA-AEEA-γGlu-C18 diacid])KILLEQEKQKKQREQAETN[Aib]QILAQV-NH2)
2 | 0.32 | 30 | > 250 | CCCCCC(=O)N[C@H](C(=O)N[C@@H](CC(C)C)C(=O)N[C@@H](CO)C(=O)N[C@@H](CC(C)C)C(=O)N[C@@H](CC(=O)O)C(=O)N[C@@H](C(=O)N1CCC[C@H]1C(=O)N[C@H](C(=O)N[C@@H](CCCCN)C(=O)N[C@@H](CC(C)C)C(=O)N[C@@H](CCCCNC(=O)CC[C@H](NC(=O)CCCCCCCCCCCCCCC(=O)O)C(=O)O)C(=O)N[C@@H](CCCCN)C(=O)N[C@H](C(=O)N[C@@H](CC(C)C)C(=O)N[C@@H](CC(C)C)C(=O)N[C@@H](CCC(=O)O)C(=O)N[C@@H](CCC(N)=O)C(=O)N[C@@H](CCC(=O)O)C(=O)N[C@@H](CCCCN)C(=O)N[C@@H](CCC(N)=O)C(=O)N[C@@H](CCCCN)C(=O)N[C@@H](CCCCN)C(=O)N[C@@H](CCC(N)=O)C(=O)N[C@@H](CCCNC(=N)N)C(=O)N[C@@H](CCC(=O)O)C(=O)N[C@@H](CCC(N)=O)C(=O)N[C@@H](C)C(=O)N[C@@H](CCC(=O)O)C(=O)N[C@H](C(=O)N[C@@H](CC(N)=O)C(=O)NC1(C(=O)N[C@@H](CCC(N)=O)C(=O)N[C@H](C(=O)N[C@@H](CC(C)C)C(=O)N[C@@H](C)C(=O)N[C@@H](CCC(N)=O)C(=O)N[C@H](C(N)=O)C(C)C)[C@@H](C)CC)CCNCC1)[C@@H](C)O)[C@@H](C)CC)[C@@H](C)CC)C(C)C)C(C)C [compound 157] (Hexanoyl-VLSLD[dV]PIKLK([γGlu-C16 diacid])KILLEQEKQKKQREQAETN[Api]QILAQV-NH2)
3 | 24.7 | 9 | > 250 | CCCCC(=O)N[C@H](C(=O)N[C@@H](CC(C)C)C(=O)N[C@@H](CO)C(=O)N[C@@H](CC(C)C)C(=O)N[C@@H](CC(=O)O)C(=O)N[C@@H](C(=O)N1CCC[C@H]1C(=O)N[C@H](C(=O)N[C@@H](CCCCN)C(=O)N[C@@H](CC(C)C)C(=O)N[C@@H](CCCCNC(=O)COCCOCCNC(=O)COCCOCCNC(=O)CC[C@H](NC(=O)CC[C@H](NC(=O)CCCCCCCCCCCCC(=O)O)C(=O)O)C(=O)O)C(=O)N[C@@H](CCCCN)C(=O)N[C@H](C(=O)N[C@@H](CC(C)C)C(=O)N[C@@H](CC(C)C)C(=O)N[C@@H](CCC(=O)O)C(=O)N[C@@H](CCC(N)=O)C(=O)N[C@@H](CCC(=O)O)C(=O)N[C@@H](CCCCN)C(=O)N[C@@H](CCC(N)=O)C(=O)N[C@@H](CCCCN)C(=O)N[C@@H](CCCCN)C(=O)N[C@@H](CCC(N)=O)C(=O)N[C@@H](CCCNC(=N)N)C(=O)N[C@@H](CCC(=O)O)C(=O)N[C@@H](CCC(N)=O)C(=O)N[C@@H](C)C(=O)N[C@@H](CCC(=O)O)C(=O)N[C@H](C(=O)N[C@@H](CC(N)=O)C(=O)NC(C)(C)C(=O)N[C@@H](CCC(N)=O)C(=O)N[C@H](C(=O)N[C@@H](CC(C)C)C(=O)N[C@@H](C)C(=O)N[C@@H](CCC(N)=O)C(=O)N[C@H](C(N)=O)C(C)C)[C@@H](C)CC)[C@@H](C)O)[C@@H](C)CC)[C@@H](C)CC)C(C)C)C(C)C [compound 181] (Pentanoyl-VLSLD[dV]PIKLK([AEEA-AEEA-γGlu-γGlu-C14 diacid])KILLEQEKQKKQREQAETN[Aib]QILAQV-NH2)
4 | 1.85 | 7 | > 250 | CC[C@H](C)[C@H](NC(C)=O)C(=O)N[C@H](C(=O)N[C@@H](CC(C)C)C(=O)N[C@@H](CO)C(=O)N[C@@H](CC(C)C)C(=O)N[C@@H](CC(=O)O)C(=O)N[C@@H](C(=O)N1CCC[C@H]1C(=O)N[C@H](C(=O)N[C@@H](CCCCN)C(=O)N[C@@H](CC(C)C)C(=O)N[C@@H](CCCCNC(=O)CC[C@H](NC(=O)CC[C@H](NC(=O)CCCCCCCCCCCCCCC(=O)O)C(=O)O)C(=O)O)C(=O)N[C@@H](CCCCN)C(=O)N[C@H](C(=O)N[C@@H](CC(C)C)C(=O)N[C@@H](CC(C)C)C(=O)N[C@@H](CCC(=O)O)C(=O)N[C@@H](CCC(N)=O)C(=O)N[C@@H](CCC(=O)O)C(=O)N[C@@H](CCCCN)C(=O)N[C@@H](CCC(N)=O)C(=O)N[C@@H](CCCCN)C(=O)N[C@@H](CCCCN)C(=O)N[C@@H](CCC(N)=O)C(=O)N[C@@H](CCCNC(=N)N)C(=O)N[C@@H](CCC(=O)O)C(=O)N[C@@H](CCC(N)=O)C(=O)N[C@@H](C)C(=O)N[C@@H](CCC(=O)O)C(=O)N[C@H](C(=O)N[C@@H](CC(N)=O)C(=O)NC(C)(C)C(=O)N[C@@H](CCC(N)=O)C(=O)N[C@H](C(=O)N[C@@H](CC(C)C)C(=O)N[C@@H](C)C(=O)N[C@@H](CCC(N)=O)C(=O)N[C@H](C(N)=O)C(C)C)[C@@H](C)CC)[C@@H](C)O)[C@@H](C)CC)[C@@H](C)CC)C(C)C)C(C)C [compound 41] (Ac-IVLSLD[dV]PIKLK([γGlu-γGlu-C16 diacid])KILLEQEKQKKQREQAETN[Aib]QILAQV-NH2)
5 | 0.28 | 8 | > 250 | CC[C@H](C)[C@H](NC(C)=O)C(=O)N[C@H](C(=O)N[C@@H](CC(C)C)C(=O)N[C@@H](CO)C(=O)N[C@@H](CC(C)C)C(=O)N[C@@H](CC(=O)O)C(=O)N[C@@H](C(=O)N1CCC[C@H]1C(=O)N[C@H](C(=O)N[C@@H](CCCCN)C(=O)N[C@@H](CC(C)C)C(=O)N[C@@H](CCCCNC(=O)CC[C@H](NC(=O)CC[C@H](NC(=O)CCCCCCCCCCCCCCCCCCC(=O)O)C(=O)O)C(=O)O)C(=O)N[C@@H](CCCCN)C(=O)N[C@H](C(=O)N[C@@H](CC(C)C)C(=O)N[C@@H](CC(C)C)C(=O)N[C@@H](CCC(=O)O)C(=O)N[C@@H](CCC(N)=O)C(=O)N[C@@H](CCC(=O)O)C(=O)N[C@@H](CCCCN)C(=O)N[C@@H](CCC(N)=O)C(=O)N[C@@H](CCCCN)C(=O)N[C@@H](C)C(=O)N[C@@H](CCC(N)=O)C(=O)N[C@@H](CCCNC(=N)N)C(=O)N[C@@H](CCC(=O)O)C(=O)N[C@@H](CCC(N)=O)C(=O)N[C@@H](C)C(=O)N[C@@H](CCC(=O)O)C(=O)N[C@H](C(=O)N[C@@H](CC(N)=O)C(=O)NC(C)(C)C(=O)N[C@@H](CCC(N)=O)C(=O)N[C@H](C(=O)N[C@@H](CC(C)C)C(=O)N[C@@H](C)C(=O)N[C@@H](CCC(N)=O)C(=O)N[C@H](C(N)=O)C(C)C)[C@@H](C)CC)[C@@H](C)O)[C@@H](C)CC)[C@@H](C)CC)C(C)C)C(C)C [compound 244] (Ac-IVLSLD[dV]PIKLK([γGlu-γGlu-C20 diacid])KILLEQEKQKAQREQAETN[Aib]QILAQV-NH2)
